Source: patent publication US20100168040A1, “MUSCLE FATIGUE REMEDY” (Kyowa Hakko Kogyo Co., Ltd., priority 2006, published 2010)
Residues, ends and D or L forms follow the SMILES beside them.

Key:
[1] = cited from earlier work
[2] = system: muscle fatigue; assay: Test Example 1: muscle fatigue status of healthy males consuming alanylglutamine continuously for 1 month; format: in vivo, human; conditions: for Muscle fatigue status: 1 month
Description: Twenty-six healthy males ages 21 to 60 consumed alanylglutamine (manufactured by Kyowa Hakko Co., Ltd.) continuously for 1 month, and the muscle fatigue status of the subjects was evaluated.

[3] = alanylglutamine compared to glutamine; cited from earlier work
[4] = alanylglutamine compared to glutamine; cited from earlier work; remark: listed apart in the source

## C[C@H](N)C(=O)N[C@@H](CCC(N)=O)C(=O)O [alanylglutamine] (H-Ala-Gln-OH)
[1]
  degradation in the body: immediately degraded into alanine and glutamine
[2]; of the 15 listed subjects (26 in all), 1 month consumption
  subjects with alleviation of muscle pain after exercise: 10 subjects
[2]; of the 26 subjects, 1 month consumption
  subjects in whom relief of muscle fatigue was observed: 15 subjects
[2]; subject 21 to 25 years, before going to bed, 2 g/administration
  Muscle fatigue status: Disappearance of muscle pain
[2]; subject 26 to 30 years, after exercising, 1 g/administration
  Muscle fatigue status: Substantial relief of muscle pain
[2]; subject 26 to 30 years, before and after exercise, approximately 1 g/administration
  Muscle fatigue status: Reduction of muscle fatigue
[2]; subject 31 to 35 years, before exercise, 8 g/administration
  Muscle fatigue status: Feeling of damage relief
[2]; subject 31 to 35 years, morning and before going to bed, 0.6 g/administration
  Muscle fatigue status: Reduction of muscle pain after
[2]; subject 31 to 35 years, morning, 0.5 g/administration
  Muscle fatigue status: Lighter muscle pain after
[2]; subject 36 to 40 years, morning and evening, 0.5 g/administration
  Muscle fatigue status: Reduction of muscle pain
[2]; subject 45 to 50 years, before going to bed, approximately 2.5 g/administration
  Muscle fatigue status: Reduction of stiff shoulders the
[2]; subject 46 to 50 years, after meals morning and evening, 1 g/administration
  Muscle fatigue status: Less fatigue and muscle pain
[2]; subject 51 to 55 years, before going to bed, approximately 0.5 g/administration
  Muscle fatigue status: Became less prone to fatigue
[2]; subject 51 to 55 years, every morning, 1 g/administration
  Muscle fatigue status: Alleviation of muscle pain after
[2]; subject 56 to 60 years, morning and evening, 0.5 g/administration
  Muscle fatigue status: Reduction of muscle pain
[3]
  heat stability: superior
[4]
  solubility in aqueous solutions: superior
